Experiment: Determination of the active substance content inside the film (UV-vis in THF, with and without ethanol wash)
Type: physicochemical
Conditions: Ecoflex film of Example 1, washed in 15 ml ethanol, UV-vis intensity ratio at 244 nm and 290 nm
Description: For applications for the controlled release of active substance, it is useful to determine the active substance content enclosed in the film more specifically.
For this, 27.3 mg of a film charged with chlorpyrifos and prepared by the procedure described above were dissolved in 15 ml of tetrahydrofuran (THF), which is a good solvent both for the active substance and also for the polymer. 0.5 milliliters of this solution were further diluted to a volume of 20 ml with THF; a UV-vis spectrum was recorded for the dilute solution.
In a comparison experiment, the film was firstly washed in 15 ml of ethanol and dried before being analyzed as described above in a solution of THF by means of UV-vis spectroscopy.
Reference spectra were measured a series of THF solutions which, as well as 33.5 mg/l of Ecoflex® comprising Ecoflex® pellets, also comprised chlorpyrifos in concentrations of from 0 to 24 mg/l. A suitable comparison parameter which clearly reflects the chlorpyrifos content is the intensity ratio I2/I1 of characteristic peaks in the UV-vis spectrum at the wavelengths 244 nm and 290 nm.

CCOP(=S)(OCC)Oc1nc(Cl)c(Cl)cc1Cl [chlorpyrifos]
chlorpyrifos used in the film preparation that remains in the film after washing with ethanol (enclosed fraction, released in a delayed manner) (dried, dissolved in THF): 24%
active substance washed away with ethanol (fraction on the film surface, directly available): 76%

— patent publication US20090270259A1, “Novel Agrochemical Formulations” (priority 2005, published 2009)
